Measured values from PMC9549030, “Structural basis for specific inhibition of the deubiquitinase UCHL1” (Nature Communications, 2022).
Values joined by “and” are separate entries in the source; they are usually repeats but may differ in a detail not shown here. Identical values can stand only once. Like-named read-outs stand apart in the source and are kept apart here.

How the values were obtained:
UCHL1 [1] = molecular target: T1, UCHL1 (Homo sapiens, UniProt P09936); assay: Thermal shift assay; type: binding; conditions: UCHL1 1 µM, 1 h, replicates
T1 sequence (P09936 1-223): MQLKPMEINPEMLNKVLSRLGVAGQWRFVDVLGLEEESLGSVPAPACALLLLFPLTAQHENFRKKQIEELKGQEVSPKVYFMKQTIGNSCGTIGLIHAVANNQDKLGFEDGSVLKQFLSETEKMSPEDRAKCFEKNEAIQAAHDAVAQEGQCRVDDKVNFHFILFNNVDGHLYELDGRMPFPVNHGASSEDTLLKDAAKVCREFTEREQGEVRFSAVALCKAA
Procedure: Reactions were performed in white 96-well PCR plates (Bio-Rad). UCHL1 was diluted in thermal shift buffer (1x PBS, 5 mM DTT) to a 4x concentration of 4 µM. The protein was then mixed with 4x compound dissolved in thermal shift buffer in a 1:1 ratio. To each well was added 20 µL of DUB-Inhibitor solution, followed by 1 h incubation time. To each well was then added 20 µL 4x SYPRO Orange in thermal shift buffer. After sealing the plates with a transparent film, thermal denaturation (gradient: 20–90 °C; Increment: 0.3 °C, hold for 5 s before read) was performed and monitored by a Bio-Rad Connect cycler.

UCHL1 [2] = molecular target: T1, UCHL1; assay: Ub-Rhodamine (Ubiquitin rhodamine cleavage) assay; type: biochemical; conditions: 1 h preincubation; for remaining activity at 0.00050402 µM: compound 0.50402 nM; for remaining activity at 0.00151206 µM: compound 1.51206 nM; for remaining activity at 0.00453618 µM: compound 4.53618 nM; for remaining activity at 0.0136085 µM: compound 13.6085 nM; for remaining activity at 0.0408257 µM: compound 40.8257 nM; for remaining activity at 0.122477 µM: compound 122.477 nM; for remaining activity at 0.367431 µM: compound 367.431 nM; for remaining activity at 1.10229 µM: compound 1102.29 nM; for remaining activity at 3.30688 µM: compound 3306.88 nM; for remaining activity at 30.581 µM: compound 30581 nM; for remaining activity at 100 µM: compound 100000 nM
UCHL1 in HEK293 cells = system: T2, UCHL1 in HEK293 cells; assay: Cellular Ub-probe (HA-Ub-VS) competition, inhibition of cellular UCHL1; type: cell-based, human; conditions: HEK293 cells; 24 h
T2 construct: Western blot analysis of endogenous UCHL1 labeled with HA-Ub-VS after treatment of HEK293 cells; endogenous in cells; host or cells: HEK293
Procedure: Proteins were transferred to a polyvinylidene fluoride (PVDF, only experiments in Fig. 4e and Supplementary Fig. 7e, f) or nitrocellulose (all other experiments) membrane using a Trans-Blot Turbo system (Bio-Rad, 1.3 A, 25 V, 10 min). The membranes were blocked with 5% (m/v) nonfat milk in PBS-T buffer and incubated with indicated primary antibodies (anti-UCHL1, 1:1000, Cell Signaling, D3T2E; anti-PARK7, 1:1000, Cell Signaling, D29E5; anti-Tubulin, 1:4000, Sigma, T6199; anti-Hemagglutinin, 1:1000, BioLegend, 16B12; anti-flag, 1:2000, Sigma, F3165; anti-Ubiquitin, 1:1000, Cell Signaling, P4D1; anti-Ubiquitin, 1:300, Santa Cruz, P4D1, sc-8017; anti-UCHL3, 1:1000, Proteintech, 12384-1-AP) overnight. Then the membranes were incubated with the respective secondary antibody (anti-mouse,1:5000, Sigma, NXA931; anti-rabbit, 1:5000, Sigma, GENA934) coupled to horseradish peroxidase. The chemiluminescent reaction was initiated using a Clarity Western ECL substrate (Bio-Rad) and images were taken on a ChemiDoc MP Imaging System (Bio-Rad).
The total protein concentration was adjusted to 2 mg/ml by diluting each sample with ABP lysis buffer. A final concentration of 1 µM HA-Ub-VS probe was added, followed by incubation for 30 min at 37 °C. The labeling reaction was quenched by the addition of 4x LDS sample buffer. The samples were separated via SDS-PAGE and further analyzed via western blotting as described above.

UCHL1 [3] = molecular target: T1, UCHL1; assay: Identification of probe-labeled proteins with mass spectrometry (pulldown enrichment); conditions: HEK293 cells; 1 µM; 24 h
Procedure: Cells were cultured, treated with a compound, and lysed as described above. The cell lysate was diluted to a protein concentration of 2 mg/mL with ABP lysis buffer. 1 µL of each click reagent (see above) were added to each sample, followed by an incubation period of one hour at room temperature with protection from light. The sample volume was adjusted to 1000 µL with PBS and 30 µL of a NeutrAvidin (Thermo Fisher) bead slurry (prewashed 3x with PBS) were added to each sample. The samples were incubated for one hour to overnight on a rotator at 15 rpm at 4 °C. Beads were pelleted by centrifugation, the supernatant was discarded, and the beads were washed six times (1x with ½x lysis buffer, followed by five washes with PBS). After removing the washing solution completely, the beads were subjected to reduction with dithiothreitol (1 mM), alkylation with chloroacetamide (5 mM) and on-bead digestion with first LysC (Serva Biotech, 1 h, 37 °C), followed by trypsin (Sigma Aldrich, 1 h, overnight). Tryptic peptides were desalted with C18 StageTips and analyzed by nano-HPLC-MS/MS.
An Ultimate 3000 RSLC nano-HPLC system and a Hybrid-Orbitrap mass spectrometer (Q Exactive Plus) equipped with a nano-spray source (Thermo Fisher Scientific) was used. The protein fragments were enriched on a C18 PepMap 100 column (5 μm, 100 Å, 300 μm ID * 5 mm, Dionex) using 0.1% TFA, at a flow rate of 30 μL/min, for 5 min and separated on a C18 PepMap 100 column (3 μm, 100 Å, 75 μm ID × 50 cm) using a linear gradient (5–30% ACN/H2O + 0.1% formic acid over 90 min) with a flow rate of 300 nL/min. […] Signals in the mass range of m/z 300 to 1650 were acquired at a resolution of 70,000 for the full scan, followed by ten high-energy collision-dissociation (HCD) MS/MS scans of the most intense at least doubly charged ions at a resolution of 17,500. Proteins were relatively quantified by using MaxQuant[60] v.2.0.3.1, including the Andromeda search algorithm and searching the Homo sapiens reference proteome of the UniProt database. Briefly, an MS/MS ion search was performed for enzymatic trypsin cleavage, allowing two missed cleavages. Carbamidomethylation was set as a fixed protein modification, and oxidation of methionine and acetylation of the N-terminus were set as variable modifications. The mass accuracy was set to 20 parts per million (ppm) for the first search and to 4.5 ppm for the second search. The false discovery rates for peptide and protein identification were set to 0.01. Only proteins for which at least two peptides were quantified were chosen for further validation. Relative quantification of proteins was performed by using the label-free quantification algorithm implemented in MaxQuant. Statistical data analysis of pulldown samples was performed using Perseus[61] v.1.6.15.0, including proteins which were identified in at least four of the five biological replicates which were used per condition. Label-free quantification (LFQ) intensities were log-transformed (log2); replicate samples were grouped together. Pairwise comparisons of groups were performed separately. Missing values were imputed using small normally distributed values (width 0.3, downshift 1.8) and a two-sided t-test (s0 = 5, FDR = 0.001) was performed.

DUBs in HEK293 lysate = assay: Activity-based protein profiling in the lysate with Ub-VS competition; type: binding, human; conditions: 1 µM, 1 h
Procedure: Cells (4 × 10^6) were seeded in 10 cm dishes and grown to 90% confluency. The medium was aspirated, cells were washed with ice-cold PBS, treated with 600 µL ABP lysis buffer (1% (v/v) IGEPAL, 50 mM Tris, 150 mM NaCl, 5% glycerol, pH 8, cOmplete protease inhibitor cocktail), and incubated on ice for 15 min. The lysed cells were scrapped off the dish, cleared by centrifugation, and the protein concentration was determined via a Bradford assay. […] Each compound was diluted to a 2x concentration in PBS buffer from a 10 mM stock in DMSO (final concentration: 1 µM). Then each compound dilution or a DMSO dilution was mixed with cell lysate and incubated for one hour at room temperature. […] Samples were resolved by SDS-PAGE using a 4–12% Bis-Tris gel (Invitrogen, NuPAGE) with MES SDS running buffer for 50 min at 180 V. Fluorescence was read out using the Alexa564 (λex/em 520–545/577–613 nm, for TAMRA) and Alexa680 (λex/em 650–675/700–730 nm, for the PageRuler Prestained NIR Protein Ladder (Thermo Scientific)) channels on a ChemiDoc MP Imaging System (Bio-Rad).

[4] = read-out: UCHL1 activity, data point mean

SMILES | melting temperature (Tm) of UCHL1 (UCHL1 [1]; compound 1.25 µM) | melting temperature (Tm) of UCHL1 (UCHL1 [1]; compound 2.5 µM) | melting temperature (Tm) of UCHL1 (UCHL1 [1]; compound 5 µM) | IC50 (UCHL1 [2]; read-out: IC50 (UCHL1)) [µM] | remaining activity at 0.00050402 µM (UCHL1 [2]; [4]) [%] | remaining activity at 0.00151206 µM (UCHL1 [2]; [4]) [%] | remaining activity at 0.00453618 µM (UCHL1 [2]; [4]) [%] | remaining activity at 0.0136085 µM (UCHL1 [2]; [4]) [%] | remaining activity at 0.0408257 µM (UCHL1 [2]; [4]) [%] | remaining activity at 0.122477 µM (UCHL1 [2]; [4]) [%] | remaining activity at 0.367431 µM (UCHL1 [2]; [4]) [%] | remaining activity at 1.10229 µM (UCHL1 [2]; [4]) [%] | remaining activity at 3.30688 µM (UCHL1 [2]; [4]) [%] | remaining activity at 30.581 µM (UCHL1 [2]; [4]) [%] | remaining activity at 100 µM (UCHL1 [2]; [4]) [%] | other results
C#CCCCNC(=O)c1ccc(-n2cnc(NC(=O)[C@@H]3CCNC3)c2)cc1 [GK12R] | 53.4 and 52.8 and 53.1 | 53.4 | 53.1 | > 100 | 95.8 | 97.9 | 98 | 94.4 | 95.3 | 95.6 | 94.6 | 95.5 | 94.2 | 93.5 | 99.1 | –
C#CCCCNC(=O)c1ccc(-n2cnc(NC(=O)[C@H]3CCNC3)c2)cc1 [GK12S] | 53.4 and 53.1 | 53.4 | 53.4 and 53.1 | > 100 | 91.5 | 91.7 | 90.7 | 97.1 | 88.7 | 91.4 | 92.8 | 91.5 | 88.8 | 90.9 | 101 | –
C#CCCCNC(=O)c1ccc(-n2cnc(NC(=O)[C@@H]3CCN(C#N)C3)c2)cc1 [GK13R] | 53.1 and 53.4 | 53.7 and 53.4 | 54 and 54.6 | 2 | – | – | – | – | – | – | – | – | – | – | – | inhibition of cellular UCHL1 (UCHL1 in HEK293 cells): complete inhibition of UCHL1; change in log2 enrichment values of UCHL1, GK13S vs GK13R (UCHL1 [3]): 2; IC50 (UCHL1 [2]; mean ± SD of independent experiments, read-out: IC50 (UCHL1)): 2.09 ± 0.164 µM; remaining activity at 0.000305176 µM (UCHL1 [2]; compound 0.305176 nM, read-out: UCHL1 activity, data point mean): 103%; remaining activity at 0.000610352 µM (UCHL1 [2]; compound 0.610352 nM, read-out: UCHL1 activity, data point mean): 98.3%; remaining activity at 0.0012207 µM (UCHL1 [2]; compound 1.2207 nM, read-out: UCHL1 activity, data point mean): 99.2%; remaining activity at 0.00244141 µM (UCHL1 [2]; compound 2.44141 nM, read-out: UCHL1 activity, data point mean): 99.4%; remaining activity at 0.00488281 µM (UCHL1 [2]; compound 4.88281 nM, read-out: UCHL1 activity, data point mean): 97.8%; remaining activity at 0.00976562 µM (UCHL1 [2]; compound 9.76562 nM, read-out: UCHL1 activity, data point mean): 96.8%; remaining activity at 0.0195312 µM (UCHL1 [2]; compound 19.5312 nM, read-out: UCHL1 activity, data point mean): 95.9%; remaining activity at 0.0390625 µM (UCHL1 [2]; compound 39.0625 nM, read-out: UCHL1 activity, data point mean): 98.3%; remaining activity at 0.078125 µM (UCHL1 [2]; compound 78.125 nM, read-out: UCHL1 activity, data point mean): 93.7%; remaining activity at 0.15625 µM (UCHL1 [2]; compound 156.25 nM, read-out: UCHL1 activity, data point mean): 88%; remaining activity at 0.3125 µM (UCHL1 [2]; compound 312.5 nM, read-out: UCHL1 activity, data point mean): 80.6%; remaining activity at 0.625 µM (UCHL1 [2]; compound 625 nM, read-out: UCHL1 activity, data point mean): 70.3%; remaining activity at 1.25 µM (UCHL1 [2]; compound 1250 nM, read-out: UCHL1 activity, data point mean): 52.9%; remaining activity at 2.5 µM (UCHL1 [2]; compound 2500 nM, read-out: UCHL1 activity, data point mean): 34.3%; remaining activity at 5 µM (UCHL1 [2]; compound 5000 nM, read-out: UCHL1 activity, data point mean): 13.6%; remaining activity at 10 µM (UCHL1 [2]; compound 10000 nM, read-out: UCHL1 activity, data point mean): 3.56%; IC50 (UCHL1 [2]; source data Fig. 3b, read-out: Averaged IC50s from independent experiments (single experiments)): 2.21 µM and 1.98 µM
C#CCCCNC(=O)[C@@H]1CCN(C#N)C1 [GK16R] | 53.4 and 53.1 | 53.1 and 53.4 | 53.4 and 53.1 | > 100 | 91.8 | 91.4 | 89.6 | 96.6 | 94.5 | 93.7 | 92.4 | 91.5 | 89 | 83.6 | 80.5 | –
C#CCN1CCN(CCOc2ccc(C(CCC)NC(=O)/C(C#N)=C/c3cccc(Br)n3)cc2)CC1 (stereo not shown) [MS037] | – | – | – | – | – | – | – | – | – | – | – | – | – | – | – | DUB engagement (Ub-VS competitive labeling) (DUBs in HEK293 lysate): did not show DUB engagement
